Columns and labels:
Format in all cases: in vivo, human
[1] = tested on: special operations veterans; assay: Hopkins Verbal Learning Test-Revised (HVLT-R), Example 1 study
[2] = tested on: special operations veterans; assay: WHODAS 2.0 disability assessment, Example 1 study; details: for WHODAS 2.0 Self Care subscale, mean: baseline 5.2% ± 9.2%; for WHODAS 2.0 Mobility subscale, mean: baseline 14.7% ± 15.7%
Description: (§1) With subjects in the fasting state, an intravenous infusion of 1 gram of magnesium sulfate was administered 1-2 hours prior to treatment. […] Medical staff (MD, RN, or EMT) were onsite at a ratio of at least 1 staff per 2 patients throughout treatment for monitoring and management, but no specific coaching or psychological support was provided during treatment.
(§2) Post treatment, each subject was assessed four days after treatment, one month after treatment, and, if willing, one year after treatment. The post-treatment assessments conducted at four days and at one month after treatment included neuropsychological testing, measures of PTSD, depression, anxiety, mystical experiences, functional imaging and EEG. Post-treatment assessments conducted at one year after treatment included PTSD, depression, and anxiety measures.
World Health Organization Disability Assessment Scale 2.0 (WHODAS 2.0) was used as a measure of function. WHODAS was used to assess the impact of health conditions across six life domains (cognition, mobility, self-care, interpersonal, life activities, and community participation) and it is sensitive to change over time (Gold, L. H., J. Am. Acad. Psychiatry Law 42, 9 (2014). Each item in the assessment is rated on a scale ranging from no problems to extreme problems (Üstün, T. B. et al., Measuring health and disability: Manual for WHO disability assessment schedule WHODAS 2.0. (World Health Organization, 2010)). To capture inter-individual variability in disability the WHODAS complex scoring method was used. Raw scores were converted to a metric ranging from 0 (no disability) to 100 (full disability), by calculating the ratio of the participant's score relative to the maximum possible score in each domain as well as to the total score (Id.). A score of 20%-39% was considered mild, 40%-59% was moderate, 60%-79% was moderate-severe and 80%-100% was severe. Scores from baseline were compared to scores from one-month post treatment.

[3] = tested on: special operations veterans; assay: MADRS depression rating scale, Example 1 study; details: for MADRS score, mean: p(FDR) <0.001
Description: as §1, §2
Clinician administered scales included CAPS-5 (Clinician-administered PTSD Scale for DSM-5), which is a gold standard assessment of PTSD symptom severity; MADRS (Montgomery-Asberg Depression Rating Scale), a measure for depressive symptom severity; and Hamilton-Anxiety Rating Scale (HAM-A) (Shear, M. K. et al., Depress. Anxiety 13, 166-178 (2001)) a measure for anxiety symptom severity; SCID-5 (Structured Clinical Interview for DSM-5) Overview for a historical and environmental context of symptom presentation; MINI DSM-5 (Mini International Neuropsychiatric Interview from DSM-5) for a structured psychodiagnostics assessment; BAT-L (Boston Assessment of TBI—Lifetime) for a lifetime history of TBI and blast exposure; and Ohio State University TBI Identification Method (Short Form) for a lifetime history of TBI. MADRS testing provides an indication of depressive symptoms, CAPS-5 provides an indication of PTSD and SIGH-A provides an indication of anxiety. Collectively these overlap to provide indication of mood, concentration, sleep and tension.
The MADRS is a clinician—administered 10-item scale assessing the severity of depression symptoms. Items are rated on a scale of 0 (no abnormality) to 6 (severe) (Montgomery, S. A. et al., Br. J. Psychiatry J. Ment. Sci. 134, 382-389 (1979)). A total score of 0-6 indicates no depression, 7-19 mild depression, 20-34 moderate depression, 35-59 severe depression, […] (Miller, M. J., J. Affect. Disord. 77, 255-260 (2003)).

[4] = tested on: male veterans with a history of TBI; assay: Pseudo-continuous arterial spin labeling MRI, cerebral blood flow (Example 3); details: paired t-test across baseline, first post-treatment scan and 1 month post-treatment; p<0.001
Description: Arterial spin labeling (ASL) MR was used to measure cerebral blood flow in some of the subjects of the subjects enrolled in the study of Example 1. As described in Example 3, pseudo-continuous ASL (pcASL) was performed on the subject at baseline, about 1 week after treatment, and one-month after treatment. […] A first metric of interest was change in net quantity (mL/100 g tissue/min) of blood entering different regions of the brain. Images of the left posterior orbital gyrus, left anterior insula, left and right cerebral white matter at baseline and 1-week post treatment (images not shown) were analyzed and compared. […] A paired t-test across 3 time points—baseline (pre-treatment), 1 week post-treatment, and 1 month post-treatment—was employed.
A second metric of interest was regression between change in clinical scores versus change in relative cerebral blood perfusion from baseline to one-month post treatment. Multiple regression with clinical scores at baseline and one-month post treatment was used. […]
A first metric of interest was change in net quantity (mL/100 g tissue/min) of blood entering different regions of the brain. Images of the left posterior orbital gyrus, left anterior insula, left and right cerebral white matter at baseline and 1-2 days post treatment (images not shown) were analyzed and compared. […]

[5] = tested on: special operations veterans; assay: Neuropsychological battery overall, Example 1 study; details: post treatment time points
Source text: A summary of the results is in Table 1 and Table 1-6 of Example 1. […] In Table 1, neuropsychological test scores are represented as a T score (mean of 50, SD of 10). Unless stated otherwise, a higher score represents better performance.
Neuropsychological testing of the enrolled subjects was designed to examine abilities over several domains of cognitive functioning, including estimated intelligence quotient (IQ), verbal fluency, working memory (visual and auditory), long term memory (visual and auditory), processing speed, sustained attention, problem solving, ability to perceive patterns, executive functioning, such as ability to hold and manipulate or update information in the head, inhibition, ability to organize, plan, and develop solutions to problems. In addition, assessments examining cognitive abilities over several domains of functioning were done to evaluate the safety of ibogaine use. […]

**Q.** `CCC1CC2CC3c4[nH]c5ccc(OC)cc5c4CCN(C2)C13` (centres unmarked) [ibogaine, Ibogaine] was tested. Which “Verbal Memory (HVLT-R), mean ± SD” value ([1]; 1-wk post, baseline 47.4 ± 10.1, p(FDR) 0.583) did it give?
**A.** The value was 49.0 ± 9.2 T score.

**Q.** And the “Verbal Memory (HVLT-R), D” value ([1]; baseline vs 1-month post)?
**A.** The value was 0.47.

**Q.** What about the “Verbal Memory (HVLT-R), D” value ([1]; baseline vs 1-wk post) of the same compound?
**A.** Its value is 0.17.

**Q.** And the Verbal memory improvement ([1]; one-month follow-up)?
**A.** The Verbal memory improvement was “significant improvement”.

**Q.** And the “WHODAS 2.0 Mobility subscale, D” value ([2]; Baseline vs One-Month)?
**A.** The value was 0.83.

**Q.** What about the “WHODAS 2.0 Self Care subscale, D” value ([2]; Baseline vs One-Month) of the same compound?
**A.** The value was 0.51.

**Q.** And the “WHODAS 2.0 Cognition subscale, D” value ([2]; Baseline vs Post-Treatment)?
**A.** Its value is 0.96.

**Q.** What about the “WHODAS 2.0 Community Participation subscale, D” value ([2]; Baseline vs Post-Treatment) of the same compound?
**A.** The value was 0.53.

**Q.** What about the “WHODAS 2.0 Interpersonal subscale, D” value ([2]; Baseline vs Post-Treatment) of the same compound?
**A.** Its value is 0.60.

**Q.** And the “WHODAS 2.0 Life Activities subscale, D” value ([2]; Baseline vs Post-Treatment)?
**A.** The value was 0.48.

**Q.** What about the “WHODAS 2.0 Mobility subscale, D” value ([2]; Baseline vs Post-Treatment) of the same compound?
**A.** The value was 0.53.

**Q.** And the “WHODAS 2.0 Self Care subscale, D” value ([2]; Baseline vs Post-Treatment)?
**A.** Its value is 0.37.

**Q.** And the “WHODAS 2.0 Self Care subscale, mean” value ([2]; One-Month, SD 2.9%, p(FDR) 0.009)?
**A.** Its value is 1.0% ±.

**Q.** And the “WHODAS 2.0 Mobility subscale, mean” value ([2]; One-Month, SD 3.3%, p(FDR) <0.001)?
**A.** Its value is 1.3% ±.

**Q.** What about the “WHODAS 2.0 Cognition subscale, mean” value ([2]; One-Month, SD 7.9%, baseline 36.1% ± 14.6%, p(FDR) <0.001) of the same compound?
**A.** Its value is 5.0% ±.

**Q.** And the “WHODAS 2.0 Interpersonal subscale, mean” value ([2]; One-Month, SD 9.5%, baseline 32.3% ± 20.4, p(FDR) <0.001)?
**A.** Its value is 4.8% ±.

**Q.** And the “WHODAS 2.0 Community Participation subscale, mean” value ([2]; One-Month, SD 13.1%, baseline 35.6% ± 21.1%, p(FDR) <0.001)?
**A.** The value was 5.9% ±.

**Q.** What about the “WHODAS 2.0 Life Activities subscale, mean” value ([2]; One-Month, SD 16.2%, baseline 41.1% ± 24.8%, p(FDR) <0.001) of the same compound?
**A.** Its value is 9.1% ±.

**Q.** What about the “WHODAS 2.0 Self Care subscale, mean” value ([2]; Post-Treatment, SD 4.7%, p(FDR) 0.028) of the same compound?
**A.** The value was 1.9% ±.

**Q.** What about the “WHODAS 2.0 Mobility subscale, mean” value ([2]; Post-Treatment, SD 13.5%, p(FDR) 0.001) of the same compound?
**A.** The value was 7.2% ±.

**Q.** And the Functioning ([2]; immediately and one-month post-treatment)?
**A.** Its Functioning is “clinically and statistically significant improvements in functioning”.

**Q.** What about the “MADRS score, mean” value ([3]; 1-mo. post, SD 5.9, baseline 25.2 ± 8.7, N 28, only participants with mild TBI) of the same compound?
**A.** Its value is 3.6.

**Q.** What about the “MADRS score, mean” value ([3]; 1-mo. post, SD 7.7, baseline 31.3 ± 6.5, N 15, only participants meeting diagnostic criteria per MINI at baseline) of the same compound?
**A.** The value was 6.4.

**Q.** What about the “MADRS % Reduction vs Baseline, mean” value ([3]; 1-mo. post, SD 17%, only participants with mild TBI) of the same compound?
**A.** Its value is 87% ±.

**Q.** And the “MADRS % Reduction vs Baseline, mean” value ([3]; 1-mo. post, SD 21%, only participants meeting diagnostic criteria per MINI)?
**A.** The value was 81% ±.

**Q.** What about the “MADRS score, mean” value ([3]; 1-wk post, SD 3.6, baseline 31.3 ± 6.5, N 15, only participants meeting diagnostic criteria per MINI at baseline) of the same compound?
**A.** Its value is 3.6.

**Q.** What about the “MADRS score, mean” value ([3]; 1-wk. post, SD 3.2, baseline 25.2 ± 8.7, N 28, only participants with mild TBI) of the same compound?
**A.** Its value is 2.7.

**Q.** What about the “MADRS % Reduction vs Baseline, mean” value ([3]; 1-wk. post, SD 11%, only participants meeting diagnostic criteria per MINI) of the same compound?
**A.** Its value is 89% ±.

**Q.** And the “MADRS % Reduction vs Baseline, mean” value ([3]; 1-wk. post, SD 24%, only participants with mild TBI)?
**A.** The value was 87% ±.

**Q.** What about the “MADRS, D” value ([3]; Baseline vs 1-mo. post, only participants with mild TBI) of the same compound?
**A.** Its value is 2.70.

**Q.** What about the “Change in absolute cerebral blood flow” value [4] of the same compound?
**A.** The value was “No significant changes”.

**Q.** And the “Declines across performance domains” value [5]?
**A.** The value was “No declines were noted across any performance domain”.
